Columns and labels:
Experiment in all cases: NCI 60 human tumor cell line screen (SRB)
Assay type in all cases: cell-based
MDA-MB-468 = MDA-MB-468 (Breast Cancer); 48 h
Method in brief: (§1)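 Cells plated 24 h before dosing, with time-zero plates TCA-fixed at drug addition; five concentrations (10-fold or ½-log dilutions) added and incubated 48 h at 37 °C, 5% CO2. Adherent cells fixed with 10% TCA, stained with 0.4% SRB, absorbance read at 515 nm; GI50, TGI and LC50 derived from percentage growth versus time zero and control.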

SW-620 = SW-620 (Colon Cancer); 48 h
Method in brief: as §1

SF-268 = SF-268 (CNS Cancer); 48 h
Method in brief: as §1

PC-3 = PC-3 (Prostate Cancer); 48 h
Method in brief: as §1

KM12 = KM12 (Colon Cancer); 48 h
Method in brief: as §1

NCI/ADR-RES = NCI/ADR-RES (Ovarian Cancer); 48 h
Method in brief: as §1

TK-10 = TK-10 (Renal Cancer); 48 h
Method in brief: as §1

DU-145 = DU-145 (Prostate Cancer); 48 h
Method in brief: as §1

HOP-92 = HOP-92 (Non-Small Cell Lung Cancer); 48 h
Method in brief: as §1

UACC-257 = UACC-257 (Melanoma); 48 h
Method in brief: as §1

786-0 = 786-0 (Renal Cancer); 48 h
Method in brief: as §1

IGROV1 = IGROV1 (Ovarian Cancer); 48 h
Method in brief: as §1

C[C@]1(C(=O)[C@H](Cc2ccccc2)NC(=O)[C@H](Cc2ccccc2)NC(=O)[C@H](COC(F)F)NC(=O)CN2CCOCC2)CO1 [Example 29]
Log10GI50 (MDA-MB-468): −6.67 | Log10LC50 (MDA-MB-468): >−4.00 | Log10TGI50 (MDA-MB-468): −6.10 | Log10GI50 (SW-620): −7.40 | Log10LC50 (SW-620): >−4.00 | Log10TGI50 (SW-620): −4.92 | Log10GI50 (SF-268): −7.27 | Log10LC50 (SF-268): >−4.00 | Log10TGI50 (SF-268): −6.50 | Log10GI50 (PC-3): −7.04 | Log10LC50 (PC-3): >−4.00 | Log10TGI50 (PC-3): −6.40 | Log10GI50 (KM12): −7.35 | Log10LC50 (KM12): −6.27 | Log10TGI50 (KM12): −6.77 | Log10GI50 (NCI/ADR-RES): −5.58 | Log10LC50 (NCI/ADR-RES): >−4.00 | Log10TGI50 (NCI/ADR-RES): >−4.00 | Log10GI50 (TK-10): −6.55 | Log10LC50 (TK-10): >−4.00 | Log10TGI50 (TK-10): −5.10 | Log10GI50 (DU-145): −7.00 | Log10LC50 (DU-145): −4.09 | Log10TGI50 (DU-145): −5.05 | Log10GI50 (HOP-92): −7.18 | Log10LC50 (HOP-92): −6.03 | Log10TGI50 (HOP-92): −6.55 | Log10GI50 (UACC-257): −6.81 | Log10LC50 (UACC-257): >−4.00 | Log10TGI50 (UACC-257): −6.00 | Log10GI50 (786-0): −6.55 | Log10LC50 (786-0): −4.87 | Log10TGI50 (786-0): −5.96 | Log10GI50 (IGROV1): −6.67 | Log10LC50 (IGROV1): >−4.00 | Log10TGI50 (IGROV1): >−4.00

From patent US9441012B2, “Fluorinated epoxyketone-based compounds and uses thereof as proteasome inhibitors” (FLUORINOV PHARMA INC., priority 2012, dated 2016)
